The values that follow come from PMC7026418, “The kinase polypharmacology landscape of clinical PARP inhibitors” (Scientific Reports, 2020).

Read-outs that look alike come from different tables or passages of the source.

What all share (assay): biochemical
The target in assay [1] is LTK (Homo sapiens, UniProt P29376). Also on record: DiscoveRx KINOMEscan active site-directed competition binding; percent of control kinase bound to immobilised ligand. As to conditions: for remaining binding at 10 µM: binding competition, % of control. The method, then: (§1) The DiscoveRx KinomeScan platform (https://www.discoverx.com), utilizing an in vitro active site-directed competition binding assay, was used to quantitatively measure interactions between the four clinical PARP inhibitors and their largest available kinase panel. At the time when the assays were performed (date: 29/11/2016), 468 in vitro binding assays were available, corresponding to 392 unique human kinases (76% of the human kinome)[39] (Supplementary Table 5). To follow up the computational analysis, we performed a comprehensive in vitro kinome screen. To do this we employed the DiscoveRx (https://www.discoverx.com) KinomeScan in vitro binding technology[37],[38] that has been widely used for kinome profiling in drug discovery. At the time of conducting our screen, this kinome panel was the largest commercially available and comprised 468 in vitro binding assays corresponding to 392 unique human kinases (76% of the human kinome)[39] (Supplementary Table 5). Also included were assays comprising mutated, deleted, phosphorylated or autoinhibited forms of proteins (n = 63), secondary or pseudokinase domains (n = 8), non-human isoforms (n = 3) and CDK complexes with different cyclins (n = 2) (Supplementary Table 5). The assays were performed at a single relatively high concentration of 10 μM to identify initially both low and high potency off-targets. The results of our use of the in vitro binding assay for kinome profiling reveal marked differences between the kinase polypharmacology of PARP inhibitors. […] The binding technology used involves a competition assay, defining activity as ≥65% of the kinase being competed off an immobilised ligand at 10 μM[38].
LTK, sequence (P29376 whole entry): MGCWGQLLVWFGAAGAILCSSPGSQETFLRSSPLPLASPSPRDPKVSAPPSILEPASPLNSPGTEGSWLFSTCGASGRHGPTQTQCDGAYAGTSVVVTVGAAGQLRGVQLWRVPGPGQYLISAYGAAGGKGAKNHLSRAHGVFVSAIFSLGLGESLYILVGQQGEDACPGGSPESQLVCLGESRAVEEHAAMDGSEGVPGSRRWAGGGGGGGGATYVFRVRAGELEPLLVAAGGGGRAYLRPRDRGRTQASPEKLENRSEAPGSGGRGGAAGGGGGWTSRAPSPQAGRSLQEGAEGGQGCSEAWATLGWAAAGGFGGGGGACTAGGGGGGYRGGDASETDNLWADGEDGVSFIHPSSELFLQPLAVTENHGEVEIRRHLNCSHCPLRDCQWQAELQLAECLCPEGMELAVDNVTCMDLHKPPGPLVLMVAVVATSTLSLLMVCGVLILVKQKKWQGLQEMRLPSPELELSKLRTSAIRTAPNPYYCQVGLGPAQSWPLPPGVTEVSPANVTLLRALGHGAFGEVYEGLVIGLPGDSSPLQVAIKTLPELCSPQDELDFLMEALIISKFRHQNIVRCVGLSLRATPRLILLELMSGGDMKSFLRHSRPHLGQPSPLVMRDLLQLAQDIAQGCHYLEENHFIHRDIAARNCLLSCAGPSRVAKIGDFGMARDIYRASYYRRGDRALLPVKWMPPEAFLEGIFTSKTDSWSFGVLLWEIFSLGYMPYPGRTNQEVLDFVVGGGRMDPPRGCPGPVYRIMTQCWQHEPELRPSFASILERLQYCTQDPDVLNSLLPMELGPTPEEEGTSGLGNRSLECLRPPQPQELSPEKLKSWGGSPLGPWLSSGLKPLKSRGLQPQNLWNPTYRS

The target in assay [2] is DYRK1B (Homo sapiens, UniProt Q9Y463). Also on record: DiscoveRx KINOMEscan active site-directed competition binding; percent of control kinase bound to immobilised ligand. The conditions noted are these: for remaining binding at 10 µM: binding competition, % of control. The method, then: as §1
DYRK1B, sequence (Q9Y463 whole entry): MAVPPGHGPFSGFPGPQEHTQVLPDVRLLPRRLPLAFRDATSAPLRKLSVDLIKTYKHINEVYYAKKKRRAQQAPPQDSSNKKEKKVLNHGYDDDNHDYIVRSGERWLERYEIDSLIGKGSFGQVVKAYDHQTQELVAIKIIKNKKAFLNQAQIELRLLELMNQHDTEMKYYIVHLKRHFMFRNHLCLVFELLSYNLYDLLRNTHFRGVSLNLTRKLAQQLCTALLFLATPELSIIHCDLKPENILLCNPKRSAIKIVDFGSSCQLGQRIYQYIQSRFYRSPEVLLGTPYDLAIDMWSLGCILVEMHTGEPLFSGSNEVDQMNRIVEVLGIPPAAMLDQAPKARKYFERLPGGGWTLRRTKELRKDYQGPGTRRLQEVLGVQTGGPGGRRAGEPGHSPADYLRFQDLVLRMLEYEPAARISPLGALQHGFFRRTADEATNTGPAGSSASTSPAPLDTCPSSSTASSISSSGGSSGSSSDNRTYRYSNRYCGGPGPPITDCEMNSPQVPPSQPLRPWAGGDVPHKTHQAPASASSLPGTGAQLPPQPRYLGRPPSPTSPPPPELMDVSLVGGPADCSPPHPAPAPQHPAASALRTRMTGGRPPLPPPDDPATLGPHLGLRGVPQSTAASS
The target of assay [3] is HIPK2 (Homo sapiens, UniProt Q9H2X6). Also noted: Reaction Biology HotSpot radiometric 33P-ATP catalytic assay at Km ATP; percent inhibition versus DMSO, mean n=2. The conditions noted are these: Km ATP. The text has this:
(§2) Unreacted phosphate is removed via washing the filters.

The target in assay [4] is CIT (Homo sapiens, UniProt O14578). Also noted: Reaction Biology HotSpot radiometric 33P-ATP catalytic assay at Km ATP; percent inhibition versus DMSO, mean n=2. As to conditions: Km ATP.
Source text: as §2

Assay [5] deals with CSNK2A2 (Homo sapiens, UniProt P19784). Also on record: DiscoveRx KINOMEscan active site-directed competition binding; percent of control kinase bound to immobilised ligand.
In assay [6] the target is WNK1 (Homo sapiens, UniProt Q9H4A3). Also on record: DiscoveRx KINOMEscan active site-directed competition binding; percent of control kinase bound to immobilised ligand.
WNK1, sequence (Q9H4A3 whole entry): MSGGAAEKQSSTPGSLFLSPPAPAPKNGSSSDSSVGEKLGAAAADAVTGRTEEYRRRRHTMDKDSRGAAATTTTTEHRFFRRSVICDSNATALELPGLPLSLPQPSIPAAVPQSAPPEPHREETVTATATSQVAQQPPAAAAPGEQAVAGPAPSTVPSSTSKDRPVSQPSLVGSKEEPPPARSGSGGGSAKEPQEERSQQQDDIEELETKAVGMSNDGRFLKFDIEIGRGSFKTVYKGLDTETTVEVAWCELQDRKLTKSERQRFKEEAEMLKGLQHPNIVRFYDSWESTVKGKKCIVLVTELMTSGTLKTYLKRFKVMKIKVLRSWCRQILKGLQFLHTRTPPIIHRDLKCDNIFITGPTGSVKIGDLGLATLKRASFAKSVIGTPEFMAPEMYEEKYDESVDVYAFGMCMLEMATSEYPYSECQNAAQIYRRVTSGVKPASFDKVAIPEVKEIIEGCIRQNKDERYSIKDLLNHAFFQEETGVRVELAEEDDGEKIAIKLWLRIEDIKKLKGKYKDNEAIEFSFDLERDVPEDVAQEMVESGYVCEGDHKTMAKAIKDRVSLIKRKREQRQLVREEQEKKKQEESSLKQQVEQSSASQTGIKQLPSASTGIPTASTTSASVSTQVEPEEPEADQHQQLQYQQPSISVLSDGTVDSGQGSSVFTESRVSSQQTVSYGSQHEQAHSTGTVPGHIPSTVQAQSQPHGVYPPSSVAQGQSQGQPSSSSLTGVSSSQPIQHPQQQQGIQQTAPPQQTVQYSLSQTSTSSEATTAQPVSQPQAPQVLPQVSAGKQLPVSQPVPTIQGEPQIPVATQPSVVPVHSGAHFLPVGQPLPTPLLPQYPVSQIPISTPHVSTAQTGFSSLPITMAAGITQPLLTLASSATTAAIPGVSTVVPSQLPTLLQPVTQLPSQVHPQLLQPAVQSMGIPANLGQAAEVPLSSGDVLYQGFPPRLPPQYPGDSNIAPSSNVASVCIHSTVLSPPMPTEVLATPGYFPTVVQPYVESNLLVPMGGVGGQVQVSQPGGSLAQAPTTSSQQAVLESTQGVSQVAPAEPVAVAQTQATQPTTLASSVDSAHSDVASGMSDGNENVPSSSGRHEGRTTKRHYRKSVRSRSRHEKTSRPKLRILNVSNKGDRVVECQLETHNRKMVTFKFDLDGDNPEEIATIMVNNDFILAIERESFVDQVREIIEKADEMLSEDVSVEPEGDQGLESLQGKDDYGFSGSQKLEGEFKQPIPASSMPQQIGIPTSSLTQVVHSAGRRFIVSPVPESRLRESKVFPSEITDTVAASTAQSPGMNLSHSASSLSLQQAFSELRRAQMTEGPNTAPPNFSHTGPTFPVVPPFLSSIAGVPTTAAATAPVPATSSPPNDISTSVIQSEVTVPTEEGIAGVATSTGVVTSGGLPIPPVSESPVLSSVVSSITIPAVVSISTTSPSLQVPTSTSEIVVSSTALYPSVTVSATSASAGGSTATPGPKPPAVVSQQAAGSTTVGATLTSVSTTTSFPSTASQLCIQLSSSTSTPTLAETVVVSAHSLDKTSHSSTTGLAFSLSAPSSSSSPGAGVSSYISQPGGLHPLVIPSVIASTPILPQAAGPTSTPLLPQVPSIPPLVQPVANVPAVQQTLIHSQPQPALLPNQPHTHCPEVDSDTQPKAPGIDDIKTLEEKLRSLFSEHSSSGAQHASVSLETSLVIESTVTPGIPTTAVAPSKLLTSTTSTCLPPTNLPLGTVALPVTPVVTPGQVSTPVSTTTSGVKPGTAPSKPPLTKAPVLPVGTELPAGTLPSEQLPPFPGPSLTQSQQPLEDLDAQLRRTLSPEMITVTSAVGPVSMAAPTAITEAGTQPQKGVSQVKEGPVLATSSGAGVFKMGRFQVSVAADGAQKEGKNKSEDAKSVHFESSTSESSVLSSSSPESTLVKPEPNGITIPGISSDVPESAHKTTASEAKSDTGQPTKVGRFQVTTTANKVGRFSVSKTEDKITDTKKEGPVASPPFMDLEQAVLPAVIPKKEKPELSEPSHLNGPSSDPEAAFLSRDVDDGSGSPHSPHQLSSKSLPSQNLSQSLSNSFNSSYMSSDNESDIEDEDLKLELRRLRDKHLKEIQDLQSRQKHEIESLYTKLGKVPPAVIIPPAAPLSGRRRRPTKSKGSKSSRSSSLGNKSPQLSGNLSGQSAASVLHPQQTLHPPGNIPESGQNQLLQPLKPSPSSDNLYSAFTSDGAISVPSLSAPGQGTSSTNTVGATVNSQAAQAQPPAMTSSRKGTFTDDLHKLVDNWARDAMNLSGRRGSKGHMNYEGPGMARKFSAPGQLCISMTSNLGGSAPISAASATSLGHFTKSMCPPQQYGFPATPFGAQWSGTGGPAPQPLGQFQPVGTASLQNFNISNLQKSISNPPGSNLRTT
Assay [7] concerns the target T1, CDK11 (Homo sapiens, UniProt Q9BWU1).
T1 construct: gene CDK19
Also on record: DiscoveRx KINOMEscan active site-directed competition binding; percent of control kinase bound to immobilised ligand.

The target in assay [8] is T2, MAP3K3 (Homo sapiens, UniProt Q99759).
T2 sequence (Q99759 1-626): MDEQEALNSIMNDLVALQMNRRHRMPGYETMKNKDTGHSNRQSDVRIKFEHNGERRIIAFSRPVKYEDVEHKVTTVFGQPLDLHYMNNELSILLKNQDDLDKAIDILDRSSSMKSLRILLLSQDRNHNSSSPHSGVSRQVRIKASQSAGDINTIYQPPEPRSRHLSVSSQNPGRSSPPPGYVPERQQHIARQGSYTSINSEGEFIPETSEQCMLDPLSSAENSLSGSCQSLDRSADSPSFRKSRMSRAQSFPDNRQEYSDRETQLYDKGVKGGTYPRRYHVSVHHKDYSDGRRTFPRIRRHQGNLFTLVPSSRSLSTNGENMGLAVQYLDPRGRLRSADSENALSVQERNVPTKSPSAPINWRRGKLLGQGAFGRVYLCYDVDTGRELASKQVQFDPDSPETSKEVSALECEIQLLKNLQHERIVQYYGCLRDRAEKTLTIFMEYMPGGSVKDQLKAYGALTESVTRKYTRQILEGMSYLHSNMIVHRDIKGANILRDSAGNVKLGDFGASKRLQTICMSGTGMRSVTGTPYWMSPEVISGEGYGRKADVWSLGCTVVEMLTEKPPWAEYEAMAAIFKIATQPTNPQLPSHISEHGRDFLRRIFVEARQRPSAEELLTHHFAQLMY
Also noted: DiscoveRx KINOMEscan active site-directed competition binding; percent of control kinase bound to immobilised ligand.

Assay [9] deals with T3, ABL1(F317I)-nonphosphorylated (Homo sapiens, UniProt P00519, F317I).
T3 construct: nonphosphorylated
T3 sequence (P00519 whole entry F317I): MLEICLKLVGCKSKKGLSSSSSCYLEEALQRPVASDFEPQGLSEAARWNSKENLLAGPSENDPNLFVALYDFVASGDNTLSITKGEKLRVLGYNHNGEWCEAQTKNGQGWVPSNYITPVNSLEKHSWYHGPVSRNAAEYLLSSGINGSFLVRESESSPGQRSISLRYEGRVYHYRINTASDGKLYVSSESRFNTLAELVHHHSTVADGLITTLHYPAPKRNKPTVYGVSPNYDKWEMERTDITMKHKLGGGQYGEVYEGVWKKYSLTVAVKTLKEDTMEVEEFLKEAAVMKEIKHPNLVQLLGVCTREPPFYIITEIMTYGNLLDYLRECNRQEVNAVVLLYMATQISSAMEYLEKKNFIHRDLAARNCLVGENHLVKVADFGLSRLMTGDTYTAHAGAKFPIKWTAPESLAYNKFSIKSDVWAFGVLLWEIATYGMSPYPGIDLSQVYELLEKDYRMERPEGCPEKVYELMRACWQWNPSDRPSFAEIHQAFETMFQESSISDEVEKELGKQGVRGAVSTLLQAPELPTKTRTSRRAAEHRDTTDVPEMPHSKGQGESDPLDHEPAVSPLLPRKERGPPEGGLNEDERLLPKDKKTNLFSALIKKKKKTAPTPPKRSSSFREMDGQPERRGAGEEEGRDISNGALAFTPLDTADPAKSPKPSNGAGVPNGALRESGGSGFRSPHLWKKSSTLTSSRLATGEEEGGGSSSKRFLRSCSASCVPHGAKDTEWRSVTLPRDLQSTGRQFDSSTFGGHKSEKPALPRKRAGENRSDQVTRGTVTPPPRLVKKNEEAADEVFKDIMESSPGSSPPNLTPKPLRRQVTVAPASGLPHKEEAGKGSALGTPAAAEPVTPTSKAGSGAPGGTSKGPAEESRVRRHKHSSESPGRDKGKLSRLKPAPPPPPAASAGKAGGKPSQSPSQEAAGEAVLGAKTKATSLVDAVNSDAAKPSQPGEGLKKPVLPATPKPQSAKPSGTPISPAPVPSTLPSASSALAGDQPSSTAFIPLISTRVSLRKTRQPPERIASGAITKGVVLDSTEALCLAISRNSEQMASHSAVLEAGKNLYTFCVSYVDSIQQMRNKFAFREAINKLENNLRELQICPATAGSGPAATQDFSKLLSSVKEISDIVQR
Also noted: DiscoveRx KINOMEscan active site-directed competition binding; percent of control kinase bound to immobilised ligand.

For assay [10], the target named is STK33 (Homo sapiens, UniProt Q9BYT3). Also on record: DiscoveRx KINOMEscan active site-directed competition binding; percent of control kinase bound to immobilised ligand. As to conditions: for remaining binding at 10 µM: binding competition, % of control. On the procedure:
as §1

Setting [11] is: read-out: Niraparib (MK-4827) / %Ctrl @ 10000nM, binding competition.
Where [12] appears, read: read-out: Niraparib (MK-4827) / %Ctrl @ 10000nM.
The mark [13] stands for this setting: read-out: Talazoparib (BMN 673) / %Ctrl @ 10000nM.
Where [14] appears, read: read-out: Rucaparib / %Ctrl @ 10000nM, binding competition.
The mark [15] stands for this setting: read-out: Rucaparib / %Ctrl @ 10000nM, binding competition, % of control.
[16] abbreviates: read-out: Olaparib / %Ctrl @ 10000nM.

A word on the inhibition: it is the drop in the measured response relative to a control, in per cent. As to `NC(=O)c1cccc2cn(-c3ccc([C@@H]4CCCNC4)cc3)nc12` [Niraparib], the values for the percent of control kinase binding at 10 µM in assay [1] (setting [11]) and in assay [2] (setting [11]) were 71% and 0%, respectively. Further, the inhibition at 1 µM worked out at 23% in [3] and 10% in assay [4]. Further, the percent of control binding at 10 µM in assay [5] (setting [12]) was 1.2%; in assay [6] (setting [12]), 100%; in assay [7] (setting [12]), 93%; in [8] (setting [12]), 100%; in [9] (setting [12]) it was 86%.

For the molecule `Cn1ncnc1[C@H]1c2n[nH]c(=O)c3cc(F)cc(c23)N[C@@H]1c1ccc(F)cc1` [Talazoparib], the remaining binding at 10 µM in assay [10] (setting [13]) was found to be 99%; in [1] (setting [13]), 91%; in assay [2] (setting [13]), 95%. The percent of control binding at 10 µM in assay [5] (setting [13]) stood at 77%; in assay [6] (setting [13]) it was 100%; in [7] (setting [13]), 93%; in assay [8] (setting [13]) it was 94%; in assay [9] (setting [13]), 96%.

On to `CNCc1ccc(-c2[nH]c3cc(F)cc4c3c2CCNC4=O)cc1` [Rucaparib], for which the percent of control kinase binding at 10 µM in [10] (setting [14]) is 89%; in assay [1] (setting [14]), 89%; in [2] (setting [14]), 5.7%. Moreover, the results for the inhibition at 1 µM in assay [3] and in [4] were -6% and 15%, respectively. For the same molecule, the percent of control binding at 10 µM in assay [5] (setting [15]) is 2%; in assay [6] (setting [15]) it was 81%; in assay [7] (setting [15]), 94%; in assay [8] (setting [15]), 85%; in [9] (setting [15]) it was 71%.

On to `O=C(c1cc(Cc2n[nH]c(=O)c3ccccc23)ccc1F)N1CCN(C(=O)C2CC2)CC1` [Olaparib], for which the remaining binding at 10 µM in assay [10] (setting [16]) was found to be 100%; in assay [1] (setting [16]), 93%; in assay [2] (setting [16]) it was 97%. Moreover, the percent of control binding at 10 µM in assay [5] (setting [16]) was found to be 83%; in [6] (setting [16]), 76%; in [7] (setting [16]) it was 85%; in assay [8] (setting [16]), 88%; in [9] (setting [16]), 66%.
